Assay results taken from US20080248008A1, “Inhibitors of Protein Kinase a Anchoring” (priority 2004, published 2008).

Legend:
RI(Δ1-24) = target: T1, RI(Δ1-24) (Bos taurus, UniProt P00514); assay: Co-precipitation with recombinant RI(Δ1-24) added to HEK293 lysate; format: binding; details: recombinant protein added to cell lysate
T1 construct: made in house; host or cells: E. coli BL21 (B121 [sic])
Text: Constructs and mutagenesis. Oligonucleotides with the following sequences were directionally cloned into EGFP-C (Clonetech) vector via TOPO blunt vector (Invitrogen) by using SalI and BamHI sites. MEME3(+), 5′-GTC GAC-CTGGAGCAGTACGCCAACCAGCTGGCCGACCAGATCATCAAGGAGGCCACCGAG-GGA TCC-3′; MEME3 (−), 5′-GGA TCC-CTCGGTGGCCTCCTTGATGATCTGGTCGGCCAGCTGGTTGGCGTACTGCTCCAG-GTC GAC-3′; Scramble (+), 5′-GTCGACATCGAGAAGGAGCTGGCCCAGCAGTACCAGAACGCCGACGCCATCACCCTGGAGGGATCC-3′; and Scramble (−), 5′-GGATCCCTCCAGGGTGATGGCGTCGGCGTTCTGGTACTGCTGGGCCAGCTCCTTCTCGATGTCGAC-3′. The site specific mutation, A98S, was made in RI wild type cloned into pRSETB (Invitrogen) using a site specific-mutagenesis kit (Stratagene). RI( 1-11), RI(Δ1-15) and RI(Δ1-24) mutants were made by PCR and re-cloned into pRSETB (Invitrogen). All constructs were confirmed by sequencing.
HEK293 cells at […] were transfected with ten μg of plasmid DNA (GFP, GFP-MEME3 or GFP-Scrambled MEME3) by using the CaCl2 method. […]
In FIG. 4D, the co-precipitation of recombinant full length and N-truncated RI (added to the cell lysate) with MEME3 was detected by immunoblotting using a monoclonal antibody against RI (lane 2-4).

PKA-RIα = target: T2, PKA-RIα (Mus musculus, UniProt Q9DBC7); assay: Immunofluorescence of PKA-RIα at mitochondria in Y1 adrenal cells; format: cell-based
T2 construct: host or cells: mouse Y-1 adrenocortical cells
Protocol: (§1) Mouse adrenocortical Y1 cells were obtained from ATCC (Cat. No. CCL-79) and maintained in DMEM/HAM'S F-12 (Cat. No. E15-813, PAA Laboratories GmbH, Pasching, Austria) supplemented with 100 μg/ml streptomycin, 100 U/ml penicillin and 10% (v/v) fetal calf serum in a humidified atmosphere of 5% CO2 and split by trypsination at less than 80% confluence.
Immunofluorescence analysis of cells was performed as previously described (Collas, P. et al., 1996, J. Cell Biol. 135, 1715-1725). RI was detected by using an anti-RI monoclonal antibody (Transduction Laboratories) as a primary antibody at a […] and Alexa-488 as a secondary antibody (1:600, Goat anti Mouse IgGs, Molecular Probes). Immunofluorescence was performed on Y1 cells attached to collagen/fibronectin coated coverslips. Mitochondria were stained using MitoTracker Red CMXRos (Molecular Probes) in fresh medium with incubation at 37° C. for 30 min prior to cell fixation. All cells were washed in PBS, fixed with 3% paraformaldehyde and permeabilised using 0.1% Triton X-100. Proteins were blocked in 2% BSA/PBST prior to antibody labeling. […] Alternatively, fluorescently labeled cells were examined using a Leica TCS SP1 confocal fluorescence microscope (Leica, Heidelberg, Germany) equipped with an Ar (488 nm) and two He/Ne (543 and 633 nm) laser lines. […]

Y1 adrenal cells = assay: Progesterone production in Y1 adrenal cells; format: cell-based, mouse; details: Actinomycin D treated cells
Protocol: as §1
Progesterone production and StAR protein level. Y1 cells were cultured overnight in 6-well plates at the density of 1.5×10^6 cells per well. To increase the basal level of StAR, the cells were pre-stimulated with 10 μM forskolin for 1 hour, washed twice with medium, before peptide loading. Thereafter, the cells were loaded with 50 μM of the arginine-coupled peptide for 5 hours before being treated with 5 μg/ml Actinomyocin D (Cat. No. A-9415, Sigma) for 30 min and stimulated with 10 μM forskolin (Cat. No. 344270, Calbiochem) or 10 IU/ml ACTH (Cat. No. A-6303, Sigma) for 12 hours. […] Progesterone in the cell medium was measured by using either Spectria Progesterone RIA (Cat. No. 68521, Orion Diagnostica, Espoo, Finland) or DELFIA progesterone kit (Cat. No. A066-101, PerkinElmer) following the conditions recommended by the manufacture. The cells were lysed and the StAR protein was analysed by western blotting and the level measured by densiometric analysis.

T1 sequence (P00514 25-380, stated change not applied): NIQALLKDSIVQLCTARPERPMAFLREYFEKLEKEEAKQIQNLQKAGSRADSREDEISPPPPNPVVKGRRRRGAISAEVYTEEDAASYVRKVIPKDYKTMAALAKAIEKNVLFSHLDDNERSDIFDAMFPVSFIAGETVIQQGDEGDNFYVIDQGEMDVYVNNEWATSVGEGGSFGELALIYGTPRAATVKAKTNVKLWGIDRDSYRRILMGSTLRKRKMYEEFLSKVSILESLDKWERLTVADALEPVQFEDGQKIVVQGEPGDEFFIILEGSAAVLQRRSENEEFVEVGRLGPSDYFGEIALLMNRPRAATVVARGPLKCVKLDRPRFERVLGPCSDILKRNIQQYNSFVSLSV

Row | Molecule | co-precipitation with RI(Δ1-24) (RI(Δ1-24)) | displacement of PKA-RIα from mitochondria (PKA-RIα) | inhibition relative to that with mutated PKA phosphorylation site in StAR (Y1 adrenal cells) | reduction of progesterone production compared to SM3-Arg11 (Y1 adrenal cells; forskolin)
1 | CC[C@H](C)[C@H](NC(=O)[C@H](CCC(N)=O)NC(=O)[C@H](CC(=O)O)NC(=O)[C@H](C)NC(=O)[C@H](CC(C)C)NC(=O)[C@H](CCC(N)=O)NC(=O)[C@H](CC(N)=O)NC(=O)[C@H](C)NC(=O)[C@H](Cc1ccc(O)cc1)NC(=O)[C@H](CCC(N)=O)NC(=O)[C@H](CCC(=O)O)NC(=O)[C@@H](N)CC(C)C)C(=O)N[C@H](C(=O)N[C@@H](CCCCN)C(=O)N[C@@H](CCC(=O)O)C(=O)N[C@@H](C)C(=O)N[C@H](C(=O)N[C@@H](CCC(=O)O)C(=O)N[C@@H](CCCCNC(=O)c1ccc2c(c1)C(=O)OC21c2ccc(O)cc2Oc2cc(O)ccc21)C(N)=O)[C@@H](C)O)[C@@H](C)CC [MEME3] | did not precipitate MEME3 |  |  | 
2 | LEQYANQLADQIIKEATERRRRRRRRRrr [MEME3-Arg11] |  | displaced from mitochondria | approximately 80% | 60%
